pIC50: −log10 of the molar value. The source made the active and inactive calls. No cut-off for these calls is given here.
Tests used:
LNCaP = assay: Cytotoxicity against human LNCAP cells measured on day 7 by MTT assay; format: functional, cell-based
[1] = Chemical stability of the compound in phosphate buffer up to 5 days at pH 7.4 by HPLC analysis; format: physicochemical; settings: for Stability: buffer, pH 7.4, 120 h; for remaining at 120 h: phosphate buffer, pH 7.4, read-out: Stability
[2] = Prodrug activation in phosphate buffer assessed as emetine formation up to 48 hrs at pH 5.5 by HPLC analysis; settings: pH 5.5, 48 h
PC-3 [3] = assay: Cytotoxicity against human PC3 cells measured on day 7 by MTT assay; format: functional, cell-based
PC-3 [4] = assay: Cytotoxicity against human PC3 cells measured on day 5 by MTT assay; format: functional, cell-based
[5] = Chemical stability of the compound in phosphate buffer up to 48 hrs at pH 5.5 by HPLC analysis; format: physicochemical; settings: pH 5.5, 48 h
PC-3 [6] = assay: Cytotoxicity against human PC3 cells measured on day 3 by MTT assay; format: functional, cell-based
[7] = Chemical stability of the compound in phosphate buffer up to 48 hrs at pH 6.5 by HPLC analysis; format: physicochemical; settings: pH 6.5, 48 h
PC-3 [8] = assay: Ratio of compound IC50 to emetine IC50 for human PC3 cells measured on day 5 at pH 7.4 by MTT assay; format: functional
Mus musculus [9] = assay: Toxicity in Balb/c mouse assessed as adverse effects at 100 mg/kg, iv qd administered as bolus for 5 days measured up to 3 weeks; format: organism-based; set-up: dose 100 mg/kg, route intravenous; settings: in vivo
Mus musculus [10] = assay: Toxicity in Balb/c mouse assessed as change in body weight at 100 mg/kg, iv qd administered as bolus for 5 days measured within 48 hrs relative to control; format: organism-based; set-up: dose 100 mg/kg, route intravenous; settings: in vivo
Mus musculus [11] = assay: Toxicity in Balb/c mouse assessed as adverse effects at 100 mg/kg, iv qd administered as bolus for 5 days; format: organism-based; set-up: dose 100 mg/kg, route intravenous; settings: in vivo, 120 h
PC-3 [12] = assay: Ratio of compound IC50 to emetine IC50 for human PC3 cells measured on day 5 at pH <7 by MTT assay; format: functional
Mus musculus [13] = assay: Toxicity in Balb/c mouse assessed as mortality at 33 mg/kg, iv qd administered as bolus for 5 days measured up to 5 days; format: organism-based; set-up: dose 33 mg/kg, route intravenous; settings: in vivo, 120 h
Mus musculus [14] = assay: Toxicity in Balb/c mouse assessed as lethargy at 33 mg/kg, iv qd administered as bolus for 5 days measured within 48 hrs; format: organism-based; set-up: dose 33 mg/kg, route intravenous; settings: in vivo
Mus musculus [15] = assay: Toxicity in Balb/c mouse assessed as weight loss at 33 mg/kg, iv qd administered as bolus for 5 days measured within 24 hrs (reference value: 1.7%); format: organism-based; set-up: dose 33 mg/kg, route intravenous; settings: in vivo
Mus musculus [16] = assay: Toxicity in Balb/c mouse assessed as weight loss at 33 mg/kg, iv qd administered as bolus for 5 days measured within 48 hrs relative to untreated control; format: organism-based; set-up: dose 33 mg/kg, route intravenous; settings: in vivo

SMILES	Drug metabolism [2]	Activity (PC-3 [4])	pIC50 (LNCaP; Homo sapiens, LNCaP, 168 h)	Stability [5]	pIC50 (PC-3 [3]; Homo sapiens, PC-3, 168 h)	Activity (PC-3 [6])	Stability [7]	other results
CC[C@H]1CN2CCc3cc(OC)c(OC)cc3[C@@H]2C[C@@H]1C[C@@H]1c2cc(OC)c(OC)cc2CCN1C(=O)/C=C\C(=O)O	Active	–	–	–	–	–	–	pIC50 (LNCaP; lncap): 5.17; Stability [1]: 100%; pIC50 (PC-3 [3]; pc-3): 5.30
CC[C@H]1CN2CCc3cc(OC)c(OC)cc3[C@@H]2C[C@@H]1C[C@@H]1c2cc(OC)c(OC)cc2CCN1C(=S)NCc1ccccc1	–	Active	5.69	Stable	5.16	Active	Stable	–
CC[C@H]1CN2CCc3cc(OC)c(OC)cc3[C@@H]2C[C@@H]1C[C@@H]1c2cc(OC)c(OC)cc2CCN1C(=O)CCC(=O)O	–	–	5.61	–	5.67	–	–	–
CC[C@H]1CN2CCc3cc(OC)c(OC)cc3[C@@H]2C[C@@H]1C[C@@H]1c2cc(OC)c(OC)cc2CCN1C(=S)NCc1ccc(OC)cc1	–	Active	5.47	Stable	5.30	–	Stable	–
CC[C@H]1CN2CCc3cc(OC)c(OC)cc3[C@@H]2C[C@@H]1C[C@@H]1c2cc(OC)c(OC)cc2CCN1C(=O)/C=C(/C)C(=O)O	Active	–	–	–	–	–	–	pIC50 (LNCaP; lncap): 6.43; Stability [1]: 100%; pIC50 (PC-3 [3]; pc-3): 6.42
CC[C@H]1CN2CCc3cc(OC)c(OC)cc3[C@@H]2C[C@@H]1C[C@@H]1c2cc(OC)c(OC)cc2CCN1C(=O)/C=C(/C)C(=O)[O-].[Na+]	Active	–	6.34	–	6.37	–	–	Ratio IC50 (PC-3 [8]): 16.8; Activity (Mus musculus [9]): Non-toxic; Activity (Mus musculus [10]): Non-toxic; remaining at 120 h [1]: 100%; Activity (Mus musculus [11]): Non-toxic; Ratio IC50 (PC-3 [12]): 2.5
CC[C@H]1CN2CCc3cc(OC)c(OC)cc3[C@@H]2C[C@@H]1C[C@@H]1c2cc(OC)c(OC)cc2CCN1C(=S)SCc1ccccc1	–	Active	5.71	Stable	5.81	Active	Stable	–
CC[C@H]1CN2CCc3cc(OC)c(OC)cc3[C@@H]2C[C@@H]1C[C@@H]1c2cc(OC)c(OC)cc2CCN1C(=O)/C=C\C(=O)[O-].[Na+]	Active	–	5.05	–	5.11	–	–	remaining at 120 h [1]: 100%
CC[C@H]1CN2CCc3cc(OC)c(OC)cc3[C@@H]2C[C@@H]1C[C@@H]1c2cc(OC)c(OC)cc2CCN1C(=S)[S-].[Na+]	–	Active	7.10	–	7.06	–	–	Activity (Mus musculus [13]): Non-toxic; Ratio IC50 (PC-3 [8]): 16.5; Activity (Mus musculus [9]): Non-toxic; Activity (Mus musculus [10]): Non-toxic; Activity (Mus musculus [14]): Non-toxic; remaining at 120 h [1]: 100%; Activity (Mus musculus [15]): 2%; Activity (Mus musculus [11]): Non-toxic; Ratio IC50 (PC-3 [12]): 1.9; Activity (Mus musculus [16]): 0.67%
CC[C@H]1CN2CCc3cc(OC)c(OC)cc3[C@@H]2C[C@@H]1C[C@@H]1c2cc(OC)c(OC)cc2CCN1C(=O)NCc1ccccc1	–	Active	5.67	Stable	5.12	Active	Stable	–
CC[C@H]1CN2CCc3cc(OC)c(OC)cc3[C@@H]2C[C@@H]1C[C@@H]1c2cc(OC)c(OC)cc2CCN1S(=O)(=O)c1ccc(Cl)cc1	–	Active	5.57	Stable	5.38	Active	Stable	–
